Assay results published in ChEMBL document CHEMBL1201862, “PubChem BioAssay data set” (2004).
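Briefly, cells in 96-well plates were exposed to five compound concentrations for 48 h, and endpoints were estimated by linear interpolation. The concentration for 50% growth inhibition is given as GI50.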 The source made the active and inactive calls. Rule as the data show it: active = GI50 up to about 1.1 µM and inactive = higher.

Legend:
Assay in all cases: DTP human tumour cell line panel, 48 h
786-0 = system: 786-0
A549 = system: A549
ACHN = system: ACHN
BT-549 = system: BT-549
CAKI-1 = system: CAKI-1
CCRF-CEM = system: CCRF-CEM
COLO 205 = system: COLO 205
DU-145 = system: DU-145
EKVX = system: EKVX
HCC 2998 = system: HCC 2998
HCT-116 = system: HCT-116
HCT-15 = system: HCT-15
HL-60 = system: HL-60
HOP-62 = system: HOP-62
HOP-92 = system: HOP-92
HT-29 = system: HT-29
K562 = system: K562
KM12 = system: KM12
M14 = system: M14
MCF7 = system: MCF7
MDA-MB-231 = system: MDA-MB-231
MDA-MB-435 = system: MDA-MB-435
MDA-N = system: MDA-N
MOLT-4 = system: MOLT-4
Malme-3M = system: Malme-3M
NCI-H226 = system: NCI-H226
NCI-H23 = system: NCI-H23
NCI-H460 = system: NCI-H460
NCI-H522 = system: NCI-H522
NCI/ADR-RES = system: NCI/ADR-RES
OVCAR-3 = system: OVCAR-3
OVCAR-4 = system: OVCAR-4
OVCAR-5 = system: OVCAR-5
OVCAR-8 = system: OVCAR-8
PC-3 = system: PC-3
RPMI-8226 = system: RPMI-8226
RXF 393 = system: RXF 393
SF-268 = system: SF-268
SF-295 = system: SF-295
SK-MEL-2 = system: SK-MEL-2
SN12C = system: SN12C
SNB-19 = system: SNB-19
SR = system: SR
SW-620 = system: SW-620
TK-10 = system: TK-10
U-251 = system: U-251
UACC-257 = system: UACC-257
UO-31 = system: UO-31
A498 = system: A498
Hs-578T = system: Hs-578T
IGROV-1 = system: IGROV-1
LOX IMVI = system: LOX IMVI
SF-539 = system: SF-539
SK-MEL-28 = system: SK-MEL-28
SK-MEL-5 = system: SK-MEL-5
SK-OV-3 = system: SK-OV-3
T47D = system: T47D
UACC-62 = system: UACC-62
SNB-75 = system: SNB-75

## Cc1ccc(/C=C/C(=N/NC(=O)N/N=C(/C=C/c2ccc(C)cc2)C(C)C)C(C)C)cc1
786-0
  GI50: > 10 µM (inactive)
A549
  GI50: > 10 µM (inactive)
ACHN
  GI50: > 10 µM (inactive)
BT-549
  GI50: > 10 µM (inactive)
CAKI-1
  GI50: > 10 µM (inactive)
CCRF-CEM
  GI50: > 10 µM (inactive)
COLO 205
  GI50: > 10 µM (inactive)
DU-145
  GI50: > 10 µM (inactive)
EKVX
  GI50: > 10 µM (inactive)
HCC 2998
  GI50: > 10 µM (inactive)
HCT-116
  GI50: 5.24 µM (inactive)
HCT-15
  GI50: > 10 µM
HL-60
  GI50: 4.42 µM (inactive)
HOP-62
  GI50: > 10 µM (inactive)
HOP-92
  GI50: > 10 µM (inactive)
HT-29
  GI50: > 10 µM (inactive)
K562
  GI50: > 10 µM (inactive)
KM12
  GI50: > 10 µM (inactive)
M14
  GI50: > 10 µM (inactive)
MCF7
  GI50: > 10 µM (inactive)
MDA-MB-231
  GI50: > 10 µM (inactive)
MDA-MB-435
  GI50: > 10 µM (inactive)
MDA-N
  GI50: > 10 µM (inactive)
MOLT-4
  GI50: > 10 µM (inactive)
Malme-3M
  GI50: > 10 µM (inactive)
NCI-H226
  GI50: > 10 µM (inactive)
NCI-H23
  GI50: > 10 µM (inactive)
NCI-H460
  GI50: > 10 µM (inactive)
NCI-H522
  GI50: 9.12 µM (inactive)
NCI/ADR-RES
  GI50: > 10 µM (inactive)
OVCAR-3
  GI50: 3.93 µM (inactive)
OVCAR-4
  GI50: 1.5 µM (inactive)
OVCAR-5
  GI50: > 10 µM (inactive)
OVCAR-8
  GI50: > 10 µM (inactive)
PC-3
  GI50: > 10 µM (inactive)
RPMI-8226
  GI50: 3.11 µM (inactive)
RXF 393
  GI50: > 10 µM (inactive)
SF-268
  GI50: > 10 µM (inactive)
SF-295
  GI50: > 10 µM (inactive)
SK-MEL-2
  GI50: > 10 µM (inactive)
SN12C
  GI50: 9.77 µM (inactive)
SNB-19
  GI50: > 10 µM (inactive)
SR
  GI50: > 10 µM (inactive)
SW-620
  GI50: > 10 µM (inactive)
TK-10
  GI50: > 10 µM (inactive)
U-251
  GI50: > 10 µM (inactive)
UACC-257
  GI50: > 10 µM (inactive)
UO-31
  GI50: > 10 µM (inactive)

## N=C1C=C(N)C(=O)c2[nH]c(=O)ccc21
786-0
  GI50: 1.91 µM (inactive)
A498
  GI50: 2.95 µM (inactive)
A549
  GI50: 2.48 µM (inactive)
ACHN
  GI50: 1.73 µM (inactive)
CAKI-1
  GI50: 5.16 µM (inactive)
CCRF-CEM
  GI50: 2.36 µM (inactive)
COLO 205
  GI50: 1.73 µM (inactive)
DU-145
  GI50: 8.13 µM (inactive)
EKVX
  GI50: 1.92 µM (inactive)
HCC 2998
  GI50: 19.3 µM (inactive)
HCT-116
  GI50: 1.1 µM (active)
HCT-15
  GI50: 2.06 µM
HL-60
  GI50: 2.63 µM (inactive)
HOP-62
  GI50: 1.92 µM (inactive)
HOP-92
  GI50: 2.11 µM (inactive)
HT-29
  GI50: 2.37 µM (inactive)
Hs-578T
  GI50: 4.42 µM (inactive)
IGROV-1
  GI50: 1.96 µM (inactive)
K562
  GI50: 1.91 µM (inactive)
KM12
  GI50: 1.82 µM (inactive)
LOX IMVI
  GI50: 2 µM (inactive)
M14
  GI50: 14.8 µM (inactive)
MCF7
  GI50: 0.351 µM (active)
MDA-MB-231
  GI50: 1.91 µM (inactive)
MDA-MB-435
  GI50: 1.09 µM (active)
MDA-N
  GI50: 1.01 µM (active)
MOLT-4
  GI50: 3.5 µM (inactive)
Malme-3M
  GI50: 2.39 µM (inactive)
NCI-H226
  GI50: 2.53 µM (inactive)
NCI-H23
  GI50: 2.23 µM (inactive)
NCI-H460
  GI50: 2.92 µM (inactive)
NCI-H522
  GI50: 1.56 µM (inactive)
NCI/ADR-RES
  GI50: 2.27 µM (inactive)
OVCAR-3
  GI50: 1.54 µM (inactive)
OVCAR-4
  GI50: 1.38 µM (inactive)
OVCAR-5
  GI50: 2.5 µM (inactive)
PC-3
  GI50: 1.36 µM (inactive)
RPMI-8226
  GI50: 2.15 µM (inactive)
RXF 393
  GI50: 1.87 µM (inactive)
SF-268
  GI50: 2.04 µM (inactive)
SF-295
  GI50: 17.3 µM (inactive)
SF-539
  GI50: 2.21 µM (inactive)
SK-MEL-28
  GI50: 20.6 µM (inactive)
SK-MEL-2
  GI50: 2.36 µM (inactive)
SK-MEL-5
  GI50: 1.8 µM (inactive)
SK-OV-3
  GI50: 13.8 µM (inactive)
SN12C
  GI50: 1.76 µM (inactive)
SNB-19
  GI50: 2.02 µM (inactive)
SR
  GI50: 3.44 µM (inactive)
SW-620
  GI50: 2.88 µM (inactive)
T47D
  GI50: 1.76 µM (inactive)
TK-10
  GI50: 12.4 µM (inactive)
U-251
  GI50: 2.04 µM (inactive)
UACC-257
  GI50: 5.07 µM (inactive)
UACC-62
  GI50: 2.3 µM (inactive)

## CN(C)C(n1cc2c(c1)-c1ccc(Cl)cc1C(c1ccccc1F)=NC2)n1cc2c(c1)-c1ccc(Cl)cc1C(c1ccccc1F)=NC2
786-0
  GI50: > 100 µM (inactive)
A498
  GI50: 8.17 µM (inactive)
A549
  GI50: 52.4 µM (inactive)
ACHN
  GI50: 63.2 µM (inactive)
CAKI-1
  GI50: > 100 µM (inactive)
CCRF-CEM
  GI50: > 100 µM (inactive)
COLO 205
  GI50: > 100 µM (inactive)
DU-145
  GI50: 54 µM (inactive)
EKVX
  GI50: > 100 µM (inactive)
HCC 2998
  GI50: 82 µM (inactive)
HCT-116
  GI50: 61.1 µM (inactive)
HCT-15
  GI50: > 100 µM
HL-60
  GI50: 51.3 µM (inactive)
HOP-62
  GI50: > 100 µM (inactive)
HT-29
  GI50: 14.3 µM (inactive)
Hs-578T
  GI50: > 100 µM (inactive)
IGROV-1
  GI50: > 100 µM (inactive)
K562
  GI50: > 100 µM (inactive)
LOX IMVI
  GI50: 12 µM (inactive)
M14
  GI50: 93.1 µM (inactive)
MCF7
  GI50: 64.3 µM (inactive)
MDA-MB-231
  GI50: > 100 µM (inactive)
MDA-MB-435
  GI50: > 100 µM (inactive)
MDA-N
  GI50: 18.4 µM (inactive)
MOLT-4
  GI50: > 100 µM (inactive)
Malme-3M
  GI50: > 100 µM (inactive)
NCI-H226
  GI50: 13 µM (inactive)
NCI-H23
  GI50: 3.31 µM (inactive)
NCI-H460
  GI50: 51.3 µM (inactive)
NCI-H522
  GI50: 81.8 µM (inactive)
NCI/ADR-RES
  GI50: > 100 µM (inactive)
OVCAR-3
  GI50: 87.5 µM (inactive)
OVCAR-4
  GI50: > 100 µM (inactive)
OVCAR-5
  GI50: 20.2 µM (inactive)
OVCAR-8
  GI50: > 100 µM (inactive)
PC-3
  GI50: 46.6 µM (inactive)
RPMI-8226
  GI50: > 100 µM (inactive)
RXF 393
  GI50: 20.2 µM (inactive)
SF-268
  GI50: 36 µM (inactive)
SF-295
  GI50: 26.3 µM (inactive)
SF-539
  GI50: > 100 µM (inactive)
SK-MEL-28
  GI50: 21.5 µM (inactive)
SK-MEL-2
  GI50: > 100 µM (inactive)
SK-MEL-5
  GI50: > 100 µM (inactive)
SK-OV-3
  GI50: > 100 µM (inactive)
SN12C
  GI50: > 100 µM (inactive)
SNB-19
  GI50: > 100 µM (inactive)
SNB-75
  GI50: 24.7 µM (inactive)
SR
  GI50: > 100 µM (inactive)
SW-620
  GI50: > 100 µM (inactive)
T47D
  GI50: 38.4 µM (inactive)
U-251
  GI50: > 100 µM (inactive)
UACC-257
  GI50: > 100 µM (inactive)
UACC-62
  GI50: > 100 µM (inactive)
UO-31
  GI50: 97.3 µM (inactive)
